Usually Ki stands for the dissociation constant of the complex between target and ligand, obtained from inhibition or displacement. The clearance is the rate of elimination divided by the concentration. Read a low clearance as a low capacity for elimination. What is called efflux ratio is the permeability from basolateral to apical divided by that in the opposite direction, in the common usage. The Papp is a coefficient for how fast a substance crosses the barrier. As usually defined, the half-life is the time in which the quantity being followed falls by half. Read a low half-life as fast loss. Usually bioavailability stands for dose-corrected exposure relative to a reference, in per cent. High values mean good availability, low ones poor availability.

Molecules are shown by their SMILES.

The values below come from ChEMBL document CHEMBL3098057, “(E)-Alkenes as replacements of amide bonds: development of novel and potent acyclic CGRP receptor antagonists” (Bioorg Med Chem Lett, 2014).

For data set [1], the target named is Calcitonin-gene-related peptide receptor, CALCRL/RAMP1 (Homo sapiens, UniProt O60894+Q16602). The data set can be described thus: Displacement of [125I]-hCGRP from human CALCRL/RAMP1 expressed in HEK293 cell membranes.
A short description of data set [2]: Clearance in rat at 2 mg/kg. The class given is ADME, organism-based. The conditions noted are these: in vivo. Also on record: dose 2 mg/kg.
In another data set the test system is human MDR1. The data set can be described thus: Efflux ratio of permeability from basolateral to apical side over apical to basolateral side in pig LLC-PK1 cells expressing human MDR1. The class given is ADME, cell-based, Sus scrofa.
Data set [3] can be described thus: Apparent passive permeability of the compound in presence of […]. Type of data set: physicochemical. The conditions noted are these: not told.
Data set [4] is described as follows: Half life in rat at 2 mg/kg. Type of data set: ADME, organism-based. More on the design: dose 2 mg/kg. The conditions noted are these: in vivo.
Data set [5] can be described thus: Oral bioavailability in rat at 10 mg/kg. The class given is ADME, organism-based. The conditions noted are these: in vivo.

Sequence of Calcitonin-gene-related peptide receptor, CALCRL/RAMP1 (O60894 whole entry): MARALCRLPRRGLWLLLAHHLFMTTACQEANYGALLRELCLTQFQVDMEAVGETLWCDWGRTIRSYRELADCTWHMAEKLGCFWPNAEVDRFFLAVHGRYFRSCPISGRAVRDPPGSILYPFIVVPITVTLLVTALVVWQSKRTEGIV
Sequence of Calcitonin-gene-related peptide receptor, CALCRL/RAMP1 (Q16602 whole entry): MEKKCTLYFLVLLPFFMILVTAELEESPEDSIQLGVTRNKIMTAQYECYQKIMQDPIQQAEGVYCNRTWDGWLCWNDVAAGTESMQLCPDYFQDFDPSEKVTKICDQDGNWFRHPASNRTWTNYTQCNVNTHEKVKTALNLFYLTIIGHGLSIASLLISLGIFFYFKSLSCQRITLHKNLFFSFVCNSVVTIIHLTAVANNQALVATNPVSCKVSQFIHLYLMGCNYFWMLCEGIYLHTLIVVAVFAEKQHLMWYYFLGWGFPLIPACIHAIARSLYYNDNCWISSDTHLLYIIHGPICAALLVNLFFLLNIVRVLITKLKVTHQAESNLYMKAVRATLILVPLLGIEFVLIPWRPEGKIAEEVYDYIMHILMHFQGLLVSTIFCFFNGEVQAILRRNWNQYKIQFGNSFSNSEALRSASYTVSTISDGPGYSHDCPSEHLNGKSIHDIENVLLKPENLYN

With `C[C@H](c1ccccc1)N(C/C=C/c1cnc2c(c1)C[C@@]1(C2)C(=O)Nc2ncccc21)C(=O)C(C)(C)C`, the inhibition constant Ki in data set [1] was 0.22 nM.
The compound `C[C@H](c1cc(F)cc(F)c1)N(CC(=O)Nc1ccc2c(c1)C[C@@]1(C2)C(=O)Nc2ncccc21)C(=O)C(C)(C)C` yielded a clearance in data set [2] of 11 mL/min/kg. Also, the efflux ratio in the data set on human MDR1 amounted to 3.2. For the same compound, the apparent permeability coefficient (Papp) in data set [3] stood at 26 ×10⁻⁶ cm/s. Further, the half-life in data set [4] was 1 h.
With `CC(C)(C)C(=O)N(CCCc1ccc2c(c1)C[C@@]1(C2)C(=O)Nc2ncccc21)[C@@H]1CCc2ccccc21`, the inhibitory constant (Ki) in data set [1] was 2.06 nM.
Turning to `C[C@H](c1cc(F)cc(F)c1)N(C/C=C/c1ccc2c(c1)C[C@@]1(C2)C(=O)Nc2ncccc21)C(=O)C1CCOCC1`, the Ki in data set [1] is 0.09 nM. Further, the efflux ratio with human MDR1 was found to be 1.9. Also, the apparent permeability (Papp) in data set [3] stood at 32 ×10⁻⁶ cm/s.
As to `C[C@H](c1ccccc1)N(CCCc1cnc2c(c1)C[C@@]1(C2)C(=O)Nc2ncccc21)C(=O)C(C)(C)C`, the Ki in data set [1] is 1.35 nM. Also, the efflux ratio with human MDR1 turned out to be 3.2. For the same compound, the apparent permeability (Papp) in data set [3] came to 39 ×10⁻⁶ cm/s.
With `CC(C)C(=O)N(C/C=C/c1ccc2c(c1)C[C@@]1(C2)C(=O)Nc2ncccc21)[C@H](C)c1cc(F)cc(F)c1`, in data set [1], the inhibition constant (Ki) is 1.27 nM.
Take `CC(C)(C)C(=O)N(CC#Cc1ccc2c(c1)C[C@@]1(C2)C(=O)Nc2ncccc21)[C@@H]1CCc2ccccc21`: in data set [1], the Ki was 0.2 nM.
Regarding `C[C@H](c1cc(F)cc(F)c1)N(Cc1cnc2cc3c(cc2c1)C[C@@]1(C3)C(=O)Nc2ncccc21)C(=O)C(C)(C)C`, in the data set on human MDR1, the efflux ratio amounted to 1.3. Moreover, the apparent permeability coefficient (Papp) in data set [3] stood at 20 ×10⁻⁶ cm/s.
Take `CC(C)(C)C(=O)N(C/C=C/c1ccc2c(c1)C[C@@]1(C2)C(=O)Nc2ncccc21)[C@@H]1CCc2ccccc21`: the Ki in data set [1] was 0.2 nM.
Turning to `Cc1ccsc1C(=O)N(C/C=C/c1cnc2c(c1)C[C@@]1(C2)C(=O)Nc2ncccc21)[C@H](C)c1cc(F)cc(F)c1`, in data set [1], the Ki was 0.13 nM. Moreover, the efflux ratio with human MDR1 amounted to 1.5. For the same compound, the Papp in data set [3] was determined as 17 ×10⁻⁶ cm/s.
Turning to `CC(C)(C)C(=O)N(CC#Cc1cnc2c(c1)C[C@@]1(C2)C(=O)Nc2ncccc21)[C@@H]1CCc2ccccc21`, the inhibition constant Ki in data set [1] is 0.05 nM. Moreover, the efflux ratio in the data set with human MDR1 came to 1.1. In data set [3], the apparent permeability coefficient (Papp) was found to be 26 ×10⁻⁶ cm/s.
With `CC(C)(C)C(=O)N(C/C=C/c1cnc2c(c1)C[C@@]1(C2)C(=O)Nc2ncccc21)[C@@H]1CCc2ccccc21`, the Ki in data set [1] was 0.08 nM. The efflux ratio in the data set on human MDR1 was 3.1. In data set [3], the Papp was determined as 24 ×10⁻⁶ cm/s.
With `C[C@H](c1ccccc1)N(CCCc1ccc2c(c1)C[C@@]1(C2)C(=O)Nc2ncccc21)C(=O)C(C)(C)C`, in data set [1], the inhibition constant Ki was 7.6 nM.
In the case of `C[C@H](c1cc(F)cc(F)c1)N(CC(=O)Nc1ccc2c(c1)C[C@@]1(C2)C(=O)NC(=O)N1C)C(=O)C(C)(C)C`, the efflux ratio in the data set on human MDR1 worked out at 8.8. In data set [3], the apparent permeability (Papp) came to 25 ×10⁻⁶ cm/s.
As for `C[C@H](c1ccccc1)N(C/C=C/c1ccc2c(c1)C[C@@]1(C2)C(=O)Nc2ncccc21)C(=O)C(C)(C)C`, in data set [1], the inhibitory constant (Ki) was 0.35 nM.
On to `Cc1noc(C)c1C(=O)N(C/C=C/c1cnc2c(c1)C[C@@]1(C2)C(=O)Nc2ncccc21)[C@H](C)c1cc(F)cc(F)c1`, for which, in data set [1], the Ki was 2.39 nM. Moreover, in the data set on human MDR1, the efflux ratio came out at 16. The Papp in data set [3] was found to be 29 ×10⁻⁶ cm/s.
On to `C[C@H](c1ccccc1)N(CC#Cc1cnc2c(c1)C[C@@]1(C2)C(=O)Nc2ncccc21)C(=O)C(C)(C)C`, for which, in data set [1], the inhibitory constant (Ki) was 0.13 nM. Besides, in the data set with human MDR1, the efflux ratio is 1.3. Also, the Papp in data set [3] came out at 33 ×10⁻⁶ cm/s.
In the case of `C[C@H](c1ccccc1)N(CC#Cc1ccc2c(c1)C[C@@]1(C2)C(=O)Nc2ncccc21)C(=O)C(C)(C)C`, the Ki in data set [1] is 0.82 nM.
`C[C@H](c1cc(F)cc(F)c1)N(C/C=C/c1cnc2c(c1)C[C@@]1(C2)C(=O)Nc2ncccc21)C(=O)C(C)(C)C`: the clearance in data set [2] came out at 23 mL/min/kg. For the same compound, the Ki in data set [1] was 0.04 nM. The bioavailability in data set [5] came to 51%. For the same compound, in the data set on human MDR1, the efflux ratio was 1.4. The Papp in data set [3] is 27 ×10⁻⁶ cm/s. The compound also showed a half-life in data set [4] of 11 h.
Turning to `CC(C)(C)C(=O)N(CCCc1cnc2c(c1)C[C@@]1(C2)C(=O)Nc2ncccc21)[C@@H]1CCc2ccccc21`, the Ki in data set [1] was 0.61 nM. For the same compound, the efflux ratio in the data set with human MDR1 stood at 2.6. Also, in data set [3], the Papp is 33 ×10⁻⁶ cm/s.
Taken in the same sequence, the figures for `C[C@H](c1cc(F)cc(F)c1)N(C/C=C/c1cnc2c(c1)C[C@@]1(C2)C(=O)Nc2ncccc21)C(=O)c1nccn1C` were 0.16 nM, 19 and 28 ×10⁻⁶ cm/s.
As for `Cc1ccc([C@@H](C)N(C/C=C/c2cnc3c(c2)C[C@@]2(C3)C(=O)Nc3ncccc32)C(=O)C(C)(C)C)cc1F`, the efflux ratio in the data set on human MDR1 was found to be 1.1. Moreover, the Papp in data set [3] was 18 ×10⁻⁶ cm/s.
For the compound `CC(C)(C)C(=O)N(C/C=C/c1cnc2c(c1)C[C@@]1(C2)C(=O)Nc2ncccc21)Cc1cc(F)cc(F)c1`, in data set [1], the inhibitory constant (Ki) is 0.93 nM. Besides, the efflux ratio in the data set with human MDR1 was determined as 0.9. Also, in data set [3], the apparent permeability (Papp) is 23 ×10⁻⁶ cm/s.
Take `C[C@H](c1cc(F)cc(F)c1)N(CCCc1cnc2c(c1)C[C@@]1(C2)C(=O)Nc2ncccc21)C(=O)C(C)(C)C`: the inhibitory constant (Ki) in data set [1] was 0.22 nM. In the data set on human MDR1, the efflux ratio is 3.1. Further, the Papp in data set [3] amounted to 26 ×10⁻⁶ cm/s.
Take `C[C@H](c1cc(F)cc(F)c1)N(C/C=C/c1ccc2c(c1)C[C@@]1(C2)C(=O)Nc2ncccc21)C(=O)[C@@H]1CCCN1C`: in data set [1], the Ki was 3.38 nM. Besides, in the data set on human MDR1, the efflux ratio worked out at 27. Further, the apparent permeability coefficient (Papp) in data set [3] was 33 ×10⁻⁶ cm/s.
For `C[C@H](c1cc(F)cc(F)c1)N(C/C=C/c1cnc2c(c1)C[C@@]1(C2)C(=O)Nc2ncccc21)C(=O)C1(C(F)(F)F)CC1`, in the data set with human MDR1, the efflux ratio amounted to 2. The apparent permeability (Papp) in data set [3] stood at 21 ×10⁻⁶ cm/s.
With `C[C@H](c1cc(F)cc(F)c1)N(C/C=C/c1ccc2c(c1)C[C@@]1(C2)C(=O)Nc2ncccc21)C(=O)C(C)(C)C`, in data set [1], the inhibitory constant (Ki) was 0.16 nM.
`Cc1cc(C(=O)N(C/C=C/c2ccc3c(c2)C[C@@]2(C3)C(=O)Nc3ncccc32)[C@H](C)c2cc(F)cc(F)c2)n(C)n1`: the Ki in data set [1] was 0.45 nM. Besides, the efflux ratio in the data set on human MDR1 worked out at 2. In data set [3], the Papp was found to be 17 ×10⁻⁶ cm/s.
Regarding `C[C@H](c1ccc(Cl)cc1)N(C/C=C/c1cnc2c(c1)C[C@@]1(C2)C(=O)Nc2ncccc21)C(=O)C(C)(C)C`, in data set [1], the Ki was 0.31 nM. The efflux ratio in the data set with human MDR1 was determined as 1. In data set [3], the Papp was 17 ×10⁻⁶ cm/s.
Regarding `CC(C)(C)C(=O)N(C/C=C/c1cnc2c(c1)C[C@@]1(C2)C(=O)Nc2ncccc21)C1CCCCCC1`, the Ki in data set [1] is 0.89 nM. Further, in the data set with human MDR1, the efflux ratio was determined as 0.8. Also, the Papp in data set [3] was determined as 20 ×10⁻⁶ cm/s.
